One may read the IC50 as the concentration that gives 50% inhibition. A low value points to greater potency.

In article PMC6354820 (Endocrinology, Diabetes & Metabolism, 2018) one finds IC50 and inhibition data, which are given here for two compounds.

In experiment [1] the target is Kir6.2 (pore subunit of the pancreatic beta-cell KATP channel) (Mus musculus, UniProt Q61743). Put plainly: inside-out patch-clamp, single-channel NPo concentration-effect. In kind it is cell-based. A general note: The patch-clamp technique gives a direct electrical read-out from membranes.
Sequence of Kir6.2 (pore subunit of the pancreatic beta-cell KATP channel) (Q61743 whole entry): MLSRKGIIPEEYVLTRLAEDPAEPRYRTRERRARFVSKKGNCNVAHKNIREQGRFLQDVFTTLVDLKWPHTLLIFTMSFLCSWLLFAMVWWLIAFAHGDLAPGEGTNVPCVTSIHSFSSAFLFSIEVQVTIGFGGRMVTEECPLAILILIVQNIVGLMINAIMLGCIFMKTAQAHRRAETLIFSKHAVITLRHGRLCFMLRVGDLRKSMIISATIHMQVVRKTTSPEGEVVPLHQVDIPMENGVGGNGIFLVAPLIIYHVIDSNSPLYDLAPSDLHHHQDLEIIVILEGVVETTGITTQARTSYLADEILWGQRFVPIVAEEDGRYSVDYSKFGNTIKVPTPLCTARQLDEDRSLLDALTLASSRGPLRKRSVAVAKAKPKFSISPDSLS
Sequence of Kir6.2 (pore subunit of the pancreatic beta-cell KATP channel) (B2RUS7 1-1588 partner): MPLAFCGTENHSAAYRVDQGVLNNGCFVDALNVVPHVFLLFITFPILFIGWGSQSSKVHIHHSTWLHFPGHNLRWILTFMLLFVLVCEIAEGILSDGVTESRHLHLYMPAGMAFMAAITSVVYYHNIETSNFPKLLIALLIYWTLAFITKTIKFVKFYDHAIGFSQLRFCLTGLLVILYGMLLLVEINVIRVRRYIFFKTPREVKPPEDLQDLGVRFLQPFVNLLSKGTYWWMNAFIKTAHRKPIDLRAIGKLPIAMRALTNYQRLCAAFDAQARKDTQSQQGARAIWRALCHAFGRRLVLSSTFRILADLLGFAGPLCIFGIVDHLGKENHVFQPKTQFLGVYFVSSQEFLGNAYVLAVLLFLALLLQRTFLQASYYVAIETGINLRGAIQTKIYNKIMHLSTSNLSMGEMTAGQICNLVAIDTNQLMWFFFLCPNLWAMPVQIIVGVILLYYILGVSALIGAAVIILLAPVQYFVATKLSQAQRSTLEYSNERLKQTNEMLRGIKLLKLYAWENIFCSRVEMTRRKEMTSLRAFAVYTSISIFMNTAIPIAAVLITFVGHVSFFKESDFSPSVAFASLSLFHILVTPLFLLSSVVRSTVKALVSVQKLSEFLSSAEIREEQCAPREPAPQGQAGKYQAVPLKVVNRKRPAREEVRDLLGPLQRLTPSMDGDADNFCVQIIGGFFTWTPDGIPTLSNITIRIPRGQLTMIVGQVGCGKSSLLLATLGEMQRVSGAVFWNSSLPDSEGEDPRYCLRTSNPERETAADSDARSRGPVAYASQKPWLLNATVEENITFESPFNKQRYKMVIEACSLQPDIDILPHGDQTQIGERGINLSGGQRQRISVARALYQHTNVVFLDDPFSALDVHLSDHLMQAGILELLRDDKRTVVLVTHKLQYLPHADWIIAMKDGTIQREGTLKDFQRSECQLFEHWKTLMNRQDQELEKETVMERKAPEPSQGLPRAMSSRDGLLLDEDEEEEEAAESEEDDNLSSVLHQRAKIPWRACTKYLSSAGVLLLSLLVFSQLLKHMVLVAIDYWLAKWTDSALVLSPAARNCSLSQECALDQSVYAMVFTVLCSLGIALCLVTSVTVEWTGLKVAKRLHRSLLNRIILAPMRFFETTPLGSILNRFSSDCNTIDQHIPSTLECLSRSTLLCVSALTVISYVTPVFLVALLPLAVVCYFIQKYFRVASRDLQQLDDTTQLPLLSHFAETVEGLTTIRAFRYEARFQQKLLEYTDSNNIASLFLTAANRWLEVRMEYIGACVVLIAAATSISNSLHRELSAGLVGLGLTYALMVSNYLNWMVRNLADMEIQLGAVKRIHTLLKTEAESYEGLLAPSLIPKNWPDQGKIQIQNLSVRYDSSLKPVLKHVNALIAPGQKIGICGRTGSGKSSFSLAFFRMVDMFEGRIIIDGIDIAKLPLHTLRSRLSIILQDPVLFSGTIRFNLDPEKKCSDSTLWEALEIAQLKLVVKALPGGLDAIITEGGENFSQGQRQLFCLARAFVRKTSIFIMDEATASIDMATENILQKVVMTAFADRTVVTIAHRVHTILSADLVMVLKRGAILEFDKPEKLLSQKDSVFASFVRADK
In experiment [2] the target is SUR1 (sulphonylurea receptor subunit of the pancreatic beta-cell KATP channel) (Mus musculus, UniProt B2RUS7). Put plainly: standard whole-cell patch-clamp, block by a single concentration. In kind it is cell-based. As to conditions: read-out: % inhibition at 20 μmol/L.
Sequence of SUR1 (sulphonylurea receptor subunit of the pancreatic beta-cell KATP channel) (B2RUS7 1-1588): as the sequence (B2RUS7 1-1588 partner) above
Sequence of SUR1 (sulphonylurea receptor subunit of the pancreatic beta-cell KATP channel) (Q61743 whole entry partner): as the sequence (Q61743 whole entry) above

In the case of `CCC(C)(C)C(=O)O[C@H]1C[C@@H](C)C=C2C=C[C@H](C)[C@H](CC[C@@H]3C[C@@H](O)CC(=O)O3)[C@H]21` [Sim, simvastatin], in experiment [1], the IC50 turned out to be 0.026 µM.

On to `CCCCNC(=O)NS(=O)(=O)c1ccc(C)cc1` [Tb, tolbutamide], for which the inhibition at 20 µM in experiment [2] worked out at 43 ± 3.3%.
